{"source": "patent US20030082610A1", "about": "“Use of a gene change in gene GNB3 coding for the B3 subunit of human G proteins” (SniP Biotech GmbH & Co. KG, priority 2001, published 2003)", "assay": "placebo-controlled clinical study on the gene-dependent (GNB3 C825T) effectiveness of Sibutramine for weight reduction", "assay_type": "in vivo, human", "procedure": "A placebo-controlled clinical study on the gene-dependent effectiveness of Sibutramine was carried out. This study included 105 patients with a body-mass index between 30 and 40 kg/m^2. All patients received a reduced calorie diet of maximum 1500-2000 kcal per day. Moreover the patients were urged to increase their physical activity and for example to walk at least 30 minutes a day at an increased pace. Forty nine patients received 15 mg Sibutramine daily to support weight reduction, while 56 patients received a placebo. The therapy was continued for 54 weeks. The body weight and body size of all patients were known at the beginning of the study and after 54 weeks of therapy. The end points of the study were the weight loss after 54 weeks, the number of patients with at least 5% reduction in body weight, and the number of patients with at least 10% reduction of body weight.\nFrom all patients, DNA was isolated from a blood sample in order to analyze the C825T allele status in gene GNB3. Genotyping was done by means of PCR reaction and restriction analysis in processes familiar to one skilled in the area. The study results are shown in the graph of FIG. 1. In the placebo group, the average weight reduction was 5.3±7.3 kg, while the weight loss in the group treated with Sibutramine was 10.0±8.7 kg. This difference was statistically significant (p=0.036). FIG. 1 illustrates the genotype-dependent weight loss. In the placebo group, the average weight reduction was 9.1±2.8 kg for the TT genotype, 7.4±1.5 kg for the TC genotype, but only 2.8±1.1 kg for the CC genotype. This difference was statistically significant (One-way ANOVA, P=0.03).", "data": [{"smiles": "CC(C)CC(N(C)C)C1(c2ccc(Cl)cc2)CCC1", "note": "(stereo not shown) [Sibutramine]", "values": [{"measurement": "odds ratio (OR) for a 5% weight loss, Sibutramine compared to placebo", "setting": "825T allele carriers, 54 weeks, p=0.26, not significant", "value": 1.8}, {"measurement": "odds ratio (OR) for a 10% weight loss, Sibutramine compared to placebo", "setting": "825T allele carriers, 54 weeks, p=0.4", "value": 1.6}, {"measurement": "weight loss", "setting": "CC genotype (825C allele carrier), 15 mg Sibutramine daily, 54 weeks", "value": 9.9, "unit": "kg"}, {"measurement": "odds ratio (OR) for a 5% weight reduction, long-term, Sibutramine versus placebo", "setting": "CC genotype, re-examined 2 years after the end of the study, p=0.0358", "value": 4.4}, {"measurement": "further weight loss compared to placebo", "setting": "TT/TC genotype (825T allele carriers), 15 mg Sibutramine daily, 54 weeks", "value": "no further weight loss compared to the placebo"}, {"measurement": "weight loss (average weight reduction)", "setting": "all genotypes, patients BMI 30-40 kg/m^2, 15 mg Sibutramine daily plus reduced calorie diet and physical activity, after 54 weeks", "value": "10.0 ± 8.7", "unit": "kg"}, {"measurement": "effect of Sibutramine compared to placebo on weight loss", "setting": "carriers of the 3882A allele and the 5249G allele", "value": "same favorable results as for the 825C allele carrier"}, {"measurement": "odds ratio (OR) for a 5% weight reduction, long-term, Sibutramine versus placebo", "setting": "genotype not printed (contrasted with CC), 2 years after the end of the study, p 0.2139, not significant", "value": 2.333}, {"measurement": "odds ratio (OR) for losing more than 5% body weight, Sibutramine compared to placebo", "setting": "homozygotic 825C allele carriers (CC genotype), 54 weeks, p 0.0002", "value": 12.0}, {"measurement": "odds ratio (OR) for the 10% weight reduction, Sibutramine compared to placebo", "setting": "homozygotic 825C allele carriers (CC genotype), 54 weeks, p 0.0028", "value": 9.69}]}]}
